Source: PubChem BioAssay AID272 (DTP/NCI, 2004)
Where “and” joins values, the source holds several entries; their conditions need not be identical. Equal values may be shown once. Records with an inconclusive call do not appear.

Test system: Lewis lung carcinoma i.m., BDF1 mice, T/C %
Assay: NCI In Vivo Anticancer Drug Screen. Data for tumor model Lewis Lung Carcinoma (intramuscular) in B6D2F1 (BDF1) mice
Description: The antitumor activity of compounds was measured in mice bearing transplantable tumors. Survival or tumor size were measured and the results are expressed as the measurement made in the treated group (T) divided by the measurement made in the vehicle treated control group (C). The tumor model used in this assay is Lewis Lung Carcinoma (intramuscular) in B6D2F1 (BDF1) mice

With `O=C(CBr)c1ccc(I)cc1` the T/C (endpoint: median survival time, dose: 1.25 mg/kg/injection, schedule: Q01DX011 (ip), vehicle: saline with Tween-80, higher = longer survival) was 102 % of control, the T/C (endpoint: median survival time, dose: 2.5 mg/kg/injection, schedule: Q01DX011 (ip), vehicle: saline with Tween-80, higher = longer survival) was 86 % of control and the T/C (endpoint: median survival time, dose: 5.0 mg/kg/injection, schedule: Q01DX011 (ip), vehicle: saline with Tween-80, higher = longer survival) was 89 % of control. For the same compound, the T/C (endpoint: median survival time, dose: 10.0 mg/kg/injection, schedule: Q01DX011 (ip), vehicle: saline with Tween-80, higher = longer survival) was 104 % of control.

`O=C(Nc1ccc(C2=NCCN2)cc1)c1ccc(C(=O)Nc2ccc(C3=NCCN3)cc2)c(Cl)c1` was tested, and the T/C (endpoint: median survival time, dose: 4.0 mg/kg/injection, schedule: Q01DX011 (ip), vehicle: water, higher = longer survival) was 90 % of control.

With `O=P1(N(CCCl)CCCl)NCCCO1` (stereo not given) the T/C (endpoint: mean tumor weight (est.), dose: 65.0 mg/kg/injection, schedule: Q01DX011 (ip), vehicle: saline, higher = larger tumour) was 40 % of control, the T/C (endpoint: mean tumor weight, dose: 65.0 mg/kg/injection, schedule: Q01DX001 (sc), vehicle: saline, higher = larger tumour) was 44 % of control and the T/C (endpoint: mean tumor weight, dose: 100.0 mg/kg/injection, schedule: Q01DX001 (ip), vehicle: saline, higher = larger tumour) was 58 % of control. For the same compound, the T/C (endpoint: mean tumor weight, dose: 108.0 mg/kg/injection, schedule: Q01DX001 (sc), vehicle: saline, higher = larger tumour) was 39 % of control, the T/C (endpoint: mean tumor weight, dose: 180.0 mg/kg/injection, schedule: Q01DX001 (ip), vehicle: saline, higher = larger tumour) was 13 % of control and the T/C (endpoint: mean tumor weight, dose: 180.0 mg/kg/injection, schedule: Q01DX001 (sc), vehicle: saline, higher = larger tumour) was 27 % of control. The T/C (endpoint: mean tumor weight, dose: 300.0 mg/kg/injection, schedule: Q01DX001 (sc), vehicle: saline, higher = larger tumour) was 31 % of control, the T/C (endpoint: median survival time, dose: 6.25 mg/kg/injection, schedule: Q01DX009 (ip), vehicle: saline, higher = longer survival) was 106 % of control and the T/C (endpoint: median survival time, dose: 12.5 mg/kg/injection, schedule: Q01DX009 (ip), vehicle: saline, higher = longer survival) was 116 % of control. The T/C (endpoint: median survival time, dose: 12.5 mg/kg/injection, schedule: Q03DX010 (ip), vehicle: saline, higher = longer survival) was 109 % of control and 110 % of control, the T/C (endpoint: median survival time, dose: 19.0 mg/kg/injection, schedule: Q01DX007 (sc), vehicle: saline, higher = longer survival) was 100 % of control and the T/C (endpoint: median survival time, dose: 23.0 mg/kg/injection, schedule: Q08DX003 (sc), vehicle: saline, higher = longer survival) was 121 % of control. The T/C (endpoint: median survival time, dose: 25.0 mg/kg/injection, schedule: Q01DX009 (ip), vehicle: saline, higher = longer survival) was 114 % of control, the T/C (endpoint: median survival time, dose: 39.0 mg/kg/injection, schedule: Q08DX003 (ip), vehicle: saline, higher = longer survival) was 100 % of control and 105 % of control and the T/C (endpoint: median survival time, dose: 39.0 mg/kg/injection, schedule: Q08DX003 (sc), vehicle: saline, higher = longer survival) was 184 % of control and 186 % of control. The T/C (endpoint: median survival time, dose: 50.0 mg/kg/injection, schedule: Q01DX001 (ip), vehicle: methylcellulose (MC), higher = longer survival) was 104 % of control and 106 % of control, the T/C (endpoint: median survival time, dose: 50.0 mg/kg/injection, schedule: Q01DX009 (ip), vehicle: saline, higher = longer survival) was 114 % of control and the T/C (endpoint: median survival time, dose: 52.0 mg/kg/injection, schedule: Q01DX007 (sc), vehicle: saline, higher = longer survival) was 95 % of control and 105 % of control. The T/C (endpoint: median survival time, dose: 65.0 mg/kg/injection, schedule: Q08DX003 (ip), vehicle: saline, higher = longer survival) was 161 % of control, the T/C (endpoint: median survival time, dose: 65.0 mg/kg/injection, schedule: Q08DX003 (sc), vehicle: saline, higher = longer survival) was 191 % of control and 192 % of control and the T/C (endpoint: median survival time, dose: 65.0 mg/kg/injection, schedule: Q14DX002 (ip), vehicle: saline, higher = longer survival) was 168 % of control. For the same compound, the T/C (endpoint: median survival time, dose: 86.0 mg/kg/injection, schedule: Q01DX007 (sc), vehicle: saline, higher = longer survival) was 78 % of control, the T/C (endpoint: median survival time, dose: 100.0 mg/kg/injection, schedule: Q01DX001 (ip), vehicle: methylcellulose (MC), higher = longer survival) was 198 % of control and 235 % of control and the T/C (endpoint: median survival time, dose: 100.0 mg/kg/injection, schedule: Q14DX002 (ip), vehicle: saline, higher = longer survival) was 159 % of control. For the same compound, the T/C (endpoint: median survival time, dose: 108.0 mg/kg/injection, schedule: Q08DX003 (ip), vehicle: saline, higher = longer survival) was 89 % of control, the T/C (endpoint: median survival time, dose: 108.0 mg/kg/injection, schedule: Q08DX003 (sc), vehicle: saline, higher = longer survival) was 173 % of control and 186 % of control and the T/C (endpoint: median survival time, dose: 108.0 mg/kg/injection, schedule: Q14DX002 (ip), vehicle: saline, higher = longer survival) was 154 % of control. For the same compound, the T/C (endpoint: median survival time, dose: 144.0 mg/kg/injection, schedule: Q01DX001 (sc), vehicle: saline, higher = longer survival) was 151 % of control, the T/C (endpoint: median survival time, dose: 180.0 mg/kg/injection, schedule: Q08DX003 (ip), vehicle: saline, higher = longer survival) was 68 % of control and the T/C (endpoint: median survival time, dose: 180.0 mg/kg/injection, schedule: Q08DX003 (sc), vehicle: saline, higher = longer survival) was 100 % of control and 103 % of control. The T/C (endpoint: median survival time, dose: 180.0 mg/kg/injection, schedule: Q14DX002 (ip), vehicle: saline, higher = longer survival) was 113 % of control, the T/C (endpoint: median survival time, dose: 200.0 mg/kg/injection, schedule: Q01DX001 (ip), vehicle: methylcellulose (MC), higher = longer survival) was 39 % of control and the T/C (endpoint: median survival time, dose: 200.0 mg/kg/injection, schedule: Q03DX010 (ip), vehicle: saline, higher = longer survival) was 30 % of control. The T/C (endpoint: median survival time, dose: 200.0 mg/kg/injection, schedule: Q14DX002 (ip), vehicle: saline, higher = longer survival) was 122 % of control, the T/C (endpoint: median survival time, dose: 240.0 mg/kg/injection, schedule: Q01DX001 (sc), vehicle: saline, higher = longer survival) was 174 % of control and 180 % of control and the T/C (endpoint: median survival time, dose: 300.0 mg/kg/injection, schedule: Q01DX001 (ip), vehicle: saline, higher = longer survival) was 63 % of control. The T/C (endpoint: median survival time, dose: 300.0 mg/kg/injection, schedule: Q01DX001 (sc), vehicle: saline, higher = longer survival) was 160 % of control, the T/C (endpoint: median survival time, dose: 300.0 mg/kg/injection, schedule: Q08DX003 (ip), vehicle: saline, higher = longer survival) was 57 % of control and the T/C (endpoint: median survival time, dose: 400.0 mg/kg/injection, schedule: Q01DX001 (ip), vehicle: methylcellulose (MC), higher = longer survival) was 22 % of control. For the same compound, the T/C (endpoint: median survival time, dose: 400.0 mg/kg/injection, schedule: Q01DX001 (ip), vehicle: saline, higher = longer survival) was 60 % of control, the T/C (endpoint: median survival time, dose: 400.0 mg/kg/injection, schedule: Q01DX001 (sc), vehicle: saline, higher = longer survival) was 49 % of control and the T/C (endpoint: median survival time, dose: 460.0 mg/kg/injection, schedule: Q01DX001 (ip), vehicle: saline, higher = longer survival) was 18 % of control. For the same compound, the T/C (endpoint: median tumor weight (est.), dose: 65.0 mg/kg/injection, schedule: Q01DX001 (ip), vehicle: saline, higher = larger tumour) was 27 % of control.

In the case of `COc1ccc(N=O)c(O)c1`, the T/C (endpoint: median survival time, dose: 25.0 mg/kg/injection, schedule: Q01DX011 (ip), vehicle: saline, higher = longer survival) is reported as 97 % of control, the T/C (endpoint: median survival time, dose: 50.0 mg/kg/injection, schedule: Q01DX011 (ip), vehicle: saline, higher = longer survival) is reported as 100 % of control and the T/C (endpoint: median survival time, dose: 100.0 mg/kg/injection, schedule: Q01DX011 (ip), vehicle: saline, higher = longer survival) is reported as 110 % of control.

In the case of `O=C1NC(O)CCN1C1OC(CO)C(O)C1O` (stereo not given), the T/C (endpoint: median survival time, dose: 25.0 mg/kg/injection, schedule: Q01DX011 (ip), vehicle: water, higher = longer survival) is reported as 89 % of control, the T/C (endpoint: median survival time, dose: 50.0 mg/kg/injection, schedule: Q01DX011 (ip), vehicle: water, higher = longer survival) is reported as 93 % of control and the T/C (endpoint: median survival time, dose: 400.0 mg/kg/injection, schedule: Q01DX011 (ip), vehicle: water, higher = longer survival) is reported as 116 % of control.

For `CCCCCCCCCCCCCCCCCC[n+]1cccc(C(=O)N2CCOCC2)c1`, the T/C (endpoint: mean tumor weight (est.), dose: 2.0 mg/kg/injection, schedule: Q01DX011 (ip), vehicle: saline, higher = larger tumour) was 82 % of control, the T/C (endpoint: mean tumor weight (est.), dose: 4.0 mg/kg/injection, schedule: Q01DX011 (ip), vehicle: saline, higher = larger tumour) was 83 % of control and the T/C (endpoint: mean tumor weight (est.), dose: 8.0 mg/kg/injection, schedule: Q01DX011 (ip), vehicle: saline, higher = larger tumour) was 71 % of control. For the same compound, the T/C (endpoint: mean tumor weight (est.), dose: 16.0 mg/kg/injection, schedule: Q01DX011 (ip), vehicle: saline, higher = larger tumour) was 64 % of control, the T/C (endpoint: median survival time, dose: 2.0 mg/kg/injection, schedule: Q01DX011 (ip), vehicle: saline, higher = longer survival) was 101 % of control and the T/C (endpoint: median survival time, dose: 4.0 mg/kg/injection, schedule: Q01DX011 (ip), vehicle: saline, higher = longer survival) was 103 % of control. The T/C (endpoint: median survival time, dose: 8.0 mg/kg/injection, schedule: Q01DX011 (ip), vehicle: saline, higher = longer survival) was 105 % of control and the T/C (endpoint: median survival time, dose: 16.0 mg/kg/injection, schedule: Q01DX011 (ip), vehicle: saline, higher = longer survival) was 94 % of control.

With `COC12C(COC(N)=O)C3=C(C(=O)C(C)=C(N)C3=O)N1CC1C2N1C` (stereo not given) the T/C (endpoint: median survival time, dose: 2.0 mg/kg/injection, schedule: Q01DX009 (ip), vehicle: Klucel (hydroxypropylcellulose) (HPC), higher = longer survival) was 92 % of control and 105 % of control, the T/C (endpoint: median survival time, dose: 2.0 mg/kg/injection, schedule: Q01DX011 (ip), vehicle: saline + alcohol, higher = longer survival) was 101 % of control and 111 % of control and the T/C (endpoint: median survival time, dose: 4.0 mg/kg/injection, schedule: Q01DX009 (ip), vehicle: Klucel (hydroxypropylcellulose) (HPC), higher = longer survival) was 100 % of control and 106 % of control. The T/C (endpoint: median survival time, dose: 4.0 mg/kg/injection, schedule: Q01DX011 (ip), vehicle: saline + alcohol, higher = longer survival) was 105 % of control.

For `COc1c2c([n+](C)c3c(OC)cccc13)OC(C(C)C)C2` (stereo not given), the T/C (endpoint: mean tumor weight (est.), dose: 0.25 mg/kg/injection, schedule: Q01DX011 (ip), vehicle: saline, higher = larger tumour) was 85 % of control, the T/C (endpoint: mean tumor weight (est.), dose: 0.5 mg/kg/injection, schedule: Q01DX011 (ip), vehicle: saline, higher = larger tumour) was 82 % of control and the T/C (endpoint: median survival time, dose: 0.25 mg/kg/injection, schedule: Q01DX011 (ip), vehicle: saline, higher = longer survival) was 90 % of control. The T/C (endpoint: median survival time, dose: 0.5 mg/kg/injection, schedule: Q01DX011 (ip), vehicle: saline, higher = longer survival) was 101 % of control.
